Results: US20070134261A1, “Effectors of innate immunity” (priority 2001, published 2007)
Residues, ends and D or L forms follow the SMILES beside them.

Tested on: primary human macrophages
Assay: Polynucleotide arrays of primary human macrophages treated with SEQ ID NO: 6 (Tables 27, 28)
Format: cell-based
Settings: 50 μg/ml, 4 h

## CC[C@H](C)[C@H](NC(=O)[C@@H]1CCCN1C(=O)[C@H](CS)NC(=O)[C@H](CCCNC(=N)N)NC(=O)[C@@H](N)CC(C)C)C(=O)N[C@@H](C)C(=O)N1CCC[C@H]1C(=O)N[C@H](C(=O)N[C@H](C(=O)N1CCC[C@H]1C(=O)N[C@H](C(=O)N[C@@H](CS)C(=O)N[C@@H](CCCCN)C(=O)N[C@@H](CCCCN)C(=O)O)C(C)C)[C@@H](C)CC)C(C)C [SEQ ID NO: 6] (H-LRCPIAPVIPVCKK-OH; N-terminus and C-terminus assumed)
A433612
  Ratio peptide treated:control, Unknown: 5.0
AB03104
  Ratio peptide treated:control, KIAA1278 protein: 2.9
AB009398
  Ratio peptide treated:control, proteasome 26S subunit non-ATPase 13: 0.44
AB011104
  Ratio peptide treated:control, KIAA0532 protein: 2.8
AB011164
  Ratio peptide treated:control, KIAA0592 protein: 4.0
AB012701
  Ratio peptide treated:control, IL-1 receptor-like 1: 0.35
AB019565
  Ratio peptide treated:control, interferon alpha-inducible protein: 0.35
AB020649
  Ratio peptide treated:control, KIAA0842 protein: 0.13
AB023139
  Ratio peptide treated:control, KIAA0922 protein: 2.1
AB023230
  Ratio peptide treated:control, KIAA1013 protein: 3.4
AB031331
  Ratio peptide treated:control, protease, serine, 21: 2.0
AB032978
  Ratio peptide treated:control, hypothetical protein FLJ20689: 2.9
AB033042
  Ratio peptide treated:control, cofactor required for Sp1 transcriptional activation subunit 3: 0.23
AB035541
  Ratio peptide treated:control, pancreatic zymogen granule membrane associated protein: 3.7
AB037838
  Ratio peptide treated:control, Unknown: 0.14
AF000367
  Ratio peptide treated:control, CDC14 homolog A: 3.8
AF016266
  Ratio peptide treated:control, TNF receptor superfamily, member 10b: 0.37
AF039390
  Ratio peptide treated:control, TNF superfamily, member 15: 0.46
AF047419
  Ratio peptide treated:control, transcription factor 21: 5.4
AF054185
  Ratio peptide treated:control, proteasome subunit alpha type, 7: 0.40
AF055008
  Ratio peptide treated:control, Granulin: 0.14
AF056200
  Ratio peptide treated:control, matrix metalloproteinase 23A: 2.7
AF060219
  Ratio peptide treated:control, chromosome condensation 1-like: 4.8
AF068289
  Ratio peptide treated:control, Unknown: 2.8
AF070640
  Ratio peptide treated:control, histone fold proteinCHRAC17: 3.8
AF087661
  Ratio peptide treated:control, NADH dehydrogenase 1 alpha subcomplex, 10: 2.1
AF105202
  Ratio peptide treated:control, potassium voltage-gated channel KQT-like subfamily member 4: 3.9
AF198052
  Ratio peptide treated:control, FYN-binding protein: 3.3
AF230904
  Ratio peptide treated:control, c-Cbl-interacting protein: 2.4
AK000077
  Ratio peptide treated:control, hypothetical protein FLJ20070: 3.4
AK000502
  Ratio peptide treated:control, hypothetical protein FLJ20495: 3.5
AK001843
  Ratio peptide treated:control, Unknown: 8.2
AL022721
  Ratio peptide treated:control, peroxisome proliferative activated receptor delta: 0.46
AL031177
  Ratio peptide treated:control, proteasome 26S subunit non-ATPase, 10: 0.32
AL031864
  Ratio peptide treated:control, Unknown: 2.9
AL049263
  Ratio peptide treated:control, Unknown: 0.06
AL050143
  Ratio peptide treated:control, DKFZP586B2420 protein: 5.9
AL050370
  Ratio peptide treated:control, Unknown: 0.38
AL109678
  Ratio peptide treated:control, Unknown: 5.6
AL117643
  Ratio peptide treated:control, Unknown: 2.7
AL137681
  Ratio peptide treated:control, eukaryotic translation initiation factor 4A, isoform 2: 3.4
AL137715
  Ratio peptide treated:control, Unknown: 4.4
D00763
  Ratio peptide treated:control, proteasome subunit alpha type, 4: 0.49
D11094
  Ratio peptide treated:control, proteasome 26S subunit ATPase, 2: 0.49
D15057
  Ratio peptide treated:control, defender against cell death 1: 0.46
D26600
  Ratio peptide treated:control, proteasome subunit beta type, 4: 0.29
D29011
  Ratio peptide treated:control, proteasome subunit beta type, 5: 0.33
D38047
  Ratio peptide treated:control, proteasome 26S subunit non-ATPase 8: 0.28
D38048
  Ratio peptide treated:control, proteasome subunit beta type 7: 0.22
D63486
  Ratio peptide treated:control, KIAA0152 gene product: 0.17
D83702
  Ratio peptide treated:control, Cryptochrome 1: 3.8
D86970
  Ratio peptide treated:control, TGFB1-induced anti-apoptotic factor 1: 0.19
D87116
  Ratio peptide treated:control, MAP kinase kinase 3: 0.37
L02426
  Ratio peptide treated:control, proteasome 26S subunit ATPase, 1: 0.49
L11284
  Ratio peptide treated:control, MAP kinase kinase 1: 2.4
L35263
  Ratio peptide treated:control, MAP kinase 14: 2.2
L42243
  Ratio peptide treated:control, interferon receptor 2: 2.5
L76191
  Ratio peptide treated:control, IL-1 receptor-associated kinase 1: 0.45
M22333
  Ratio peptide treated:control, LINE retrotransposable element 1: 4.0
M32315
  Ratio peptide treated:control, TNF receptor superfamily member 1B: 0.29
M34079
  Ratio peptide treated:control, proteasome 26S subunit, ATPase, 3: 0.35
  Ratio peptide treated:control, proteasome subunit beta type, 6: 0.38
M38056
  Ratio peptide treated:control, lymphocyte antigen: 3.2
M60748
  Ratio peptide treated:control, H1 histone family, member 4: 3.0
M63138
  Ratio peptide treated:control, Cathepsin D: 0.36
M65066
  Ratio peptide treated:control, protein kinase, cAMP-dependent, regulatory, type I, beta: 2.9
M77349
  Ratio peptide treated:control, TGF, beta-induced,: 0.37
M80563
  Ratio peptide treated:control, S100 calcium-binding protein A4: 0.31
M84424
  Ratio peptide treated:control, cathepsin E: 2.7
M86407
  Ratio peptide treated:control, actinin, alpha 3: 6.9
NM 002199
  Ratio peptide treated:control, interferon regulatory factor 2: 2.0
NM_001219
  Ratio peptide treated:control, calumenin: 2.9
NM_002084
  Ratio peptide treated:control, glutathione peroxidase 3: 0.15
NM_004862
  Ratio peptide treated:control, LPS-induced TNF-alpha factor: 0.41
NM_006129
  Ratio peptide treated:control, bone morphogenetic protein 1: 2.1
NM_006609
  Ratio peptide treated:control, MAP kinase kinase kinase 2: 0.32
NM_012428
  Ratio peptide treated:control, SDF receptor 1: 0.35
NM_012461
  Ratio peptide treated:control, TERF1 (TRF1)-interacting nuclear factor 2: 4.2
NM_013392
  Ratio peptide treated:control, nuclear receptor binding protein: 0.38
S76988
  Ratio peptide treated:control, cyclin-dependent kinase inhibitor 1B: 2.2
U06233
  Ratio peptide treated:control, POU domain, class 4, transcription factor 2: 2.8
U07349
  Ratio peptide treated:control, MAP kinase kinase kinase kinase 2: 0.46
U12779
  Ratio peptide treated:control, MAP kinase-activated protein kinase 2: 0.34
U13737
  Ratio peptide treated:control, caspase 3: 0.35
U25265
  Ratio peptide treated:control, MAP kinase kinase 5: 0.44
U31556
  Ratio peptide treated:control, E2F transcription factor 5, p130-binding: 3.5
U37518
  Ratio peptide treated:control, TNF superfamily member 10: 0.46
U40282
  Ratio peptide treated:control, integrin-linked kinase: 0.13
U41492
  Ratio peptide treated:control, guanine nucleotide binding protein, gamma transducing activity polypeptide 1: 3.3
U43628
  Ratio peptide treated:control, mucosal vascular addressin cell adhesion molecule 1: 3.2
U56417
  Ratio peptide treated:control, 1-acylglycerol-3-phosphate O-acyltransferase 1: 4.0
U67319
  Ratio peptide treated:control, caspase 7: 0.49
U75285
  Ratio peptide treated:control, apoptosis inhibitor 4: 4.2
U81232
  Ratio peptide treated:control, TNF receptor superfamily, member 14: 0.26
U89326
  Ratio peptide treated:control, bone morphogenetic protein receptor, type IB: 2.1
X01060
  Ratio peptide treated:control, transferrin receptor: 0.42
X01683
  Ratio peptide treated:control, protease inhibitor 1 alpha-1-antitrypsin: 0.40
X12451
  Ratio peptide treated:control, Cathepsin L: 0.44
X13238
  Ratio peptide treated:control, cytochrome c oxidase subunit Vic: 0.30
X16832
  Ratio peptide treated:control, cathepsin H: 0.47
X52479
  Ratio peptide treated:control, protein kinase C, alpha: 2.4
X52997
  Ratio peptide treated:control, glycoprotein IX: 3.4
X54232
  Ratio peptide treated:control, glypican 1: 3.2
X56681
  Ratio peptide treated:control, jun D proto-oncogene: 0.35
X59417
  Ratio peptide treated:control, proteasome subunit alpha type, 6: 0.31
X68560
  Ratio peptide treated:control, Sp3 transcription factor: 3.6
X71490
  Ratio peptide treated:control, Vacuolar proton-ATPase, subunit D; V-ATPase, subunit D: 4.0
X71877
  Ratio peptide treated:control, chymotrypsin-like protease: 2.9
X73874
  Ratio peptide treated:control, phosphorylase kinase alpha 1: 7.1
X78924
  Ratio peptide treated:control, zinc finger protein 266: 2.2
X79234
  Ratio peptide treated:control, ribosomal protein L11: 0.32
X95384
  Ratio peptide treated:control, translational inhibitor protein p14.5: 3.0
Y12864
  Ratio peptide treated:control, c-fos induced growth factor: 2.3
Y13323
  Ratio peptide treated:control, disintegrin protease: 0.21
Z11887
  Ratio peptide treated:control, matrix metalloproteinase 7: 0.49
Z26248
  Ratio peptide treated:control, proteoglycan 2: 9.3
Z48481
  Ratio peptide treated:control, matrix metalloproteinase 14: 0.32
Z49194
  Ratio peptide treated:control, POU domain, class 2, associating factor 1: 2.8
Z81326
  Ratio peptide treated:control, protease inhibitor 12: 0.48
